Laboratory results from patent publication US8916549B2, “Thienooxazepine derivative” (Takeda Pharmaceutical Company Limited, priority 2009, dated 2014).
Structures can show the parent of a compound that is named as a salt.

Target: serotonin 5-HT2C receptor (isoform type VSV, stably expressing CHO cell) (Homo sapiens, UniProt P28335, I156V/I160V/N158S)
Assay: cell-based
Conditions: read-out: ratio to maximum response by 5-HT (1 μM)

Sequence of serotonin 5-HT2C receptor (isoform type VSV, stably expressing CHO cell) (P28335 33-458 I156V/N158S/I160V limits assumed): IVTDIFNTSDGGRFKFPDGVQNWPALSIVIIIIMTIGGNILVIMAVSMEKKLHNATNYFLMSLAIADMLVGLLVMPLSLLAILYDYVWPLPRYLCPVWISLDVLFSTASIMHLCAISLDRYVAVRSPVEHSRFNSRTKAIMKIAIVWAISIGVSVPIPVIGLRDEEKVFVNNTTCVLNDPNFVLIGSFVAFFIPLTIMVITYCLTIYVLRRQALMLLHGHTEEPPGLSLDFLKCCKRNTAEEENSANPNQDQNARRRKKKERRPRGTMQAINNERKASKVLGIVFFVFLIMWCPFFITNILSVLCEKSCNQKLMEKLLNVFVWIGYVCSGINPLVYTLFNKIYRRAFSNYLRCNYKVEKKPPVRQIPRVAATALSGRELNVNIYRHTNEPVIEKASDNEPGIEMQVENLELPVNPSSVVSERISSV

| SMILES | Emax [%] |
| --- | --- |
| C[C@H]1CNCc2scc(C3CC3)c2O1 [Example 14, (2S)-8-cyclopropyl-2-methyl-2,3,4,5-tetrahydrothieno[2,3-f][1,4]oxazepine 1 hydrochloride] | 100 |
| c1sc2c(c1C1CCC1)OCCNC2 [Example 5, 8-cyclobutyl-2,3,4,5-tetrahydrothieno[2,3-f][1,4]oxazepine 1 hydrochloride] | 107 |
| COc1cccc(-c2csc3c2OC(C)CNC3)c1 (stereo not drawn) [Example 6, 8-(3-methoxyphenyl)-2-methyl-2,3,4,5-tetrahydrothieno[2,3-f][1,4]oxazepine 1 hydrochloride] | 97 |
| CC(C)c1csc2c1OCCNC2 [Example 4, 8-(1-methylethyl)-2,3,4,5-tetrahydrothieno[2,3-f][1,4]oxazepine 1 hydrochloride] | 99 |
| C[C@H]1CNCc2scc(-c3cccc(F)c3)c2O1 [Example 12, (2S)-8-(3-fluorophenyl)-2-methyl-2,3,4,5-tetrahydrothieno[2,3-f][1,4]oxazepine 1 hydrochloride] | 101 |
| CC(C)c1csc2c1O[C@@H](C)CNC2 [Example 15, (2S)-2-methyl-8-(1-methylethyl)-2,3,4,5-tetrahydrothieno[2,3-f][1,4]oxazepine 1 hydrochloride] | 96 |
| Fc1cccc(-c2csc3c2OCCNC3)c1 [Example 2, 8-(3-fluorophenyl)-2,3,4,5-tetrahydrothieno[2,3-f][1,4]oxazepine 1 hydrochloride] | 101 |
| CCCc1csc2c1O[C@@H](C)CNC2 [Example 16, (2S)-2-methyl-8-propyl-2,3,4,5-tetrahydrothieno[2,3-f][1,4]oxazepine 1 hydrochloride] | 97 |
| Cc1sc2c(c1C1CC1)OCCNC2 [Example 17, 8-cyclopropyl-7-methyl-2,3,4,5-tetrahydrothieno[2,3-f][1,4]oxazepine 1 hydrochloride] | 91 |
| CC(c1csc2c1OCCNC2)C(F)(F)F (stereo not drawn) [Example 20, 8-(2,2,2-trifluoro-1-methylethyl)-2,3,4,5-tetrahydrothieno[2,3-f][1,4]oxazepine 1 hydrochloride] | 85 |
| CC(c1csc2c1O[C@@H](C)CNC2)C(F)(F)F (stereo partly drawn) [Example 21, (2S)-2-methyl-8-(2,2,2-trifluoro-1-methylethyl)-2,3,4,5-tetrahydrothieno[2,3-f][1,4]oxazepine 1 hydrochloride] | 94 |
| c1sc2c(c1C1CC1)OCCNC2 [Example 3, 8-cyclopropyl-2,3,4,5-tetrahydrothieno[2,3-f][1,4]oxazepine 1 hydrochloride] | 98 |
